# Experimental data taken from US20150065345A1, “1,2,4 - TRIAZOLE DERIVATIVES AS HERBICIDALS” (SYNGENTA LIMITED, priority 2012, published 2015).
# How the values were obtained:
# Type in all cases: in vivo
# Details in all cases: 1000 g/h, evaluated after 13 days, five point scale
# [1] = test system: Lolium perenne (LOLPE); assay: Glasshouse herbicide test, post-emergence
# Method: (§1) Seeds of a variety of test species are sown in standard soil in pots Alopecurus myosuroides (ALOMY), Amaranthus retoflexus (AMARE), Setaria faberi (SETFA), Echinochloa crus-galli (ECHCG), Lolium perenne (LOLPE), Solanum nigrum (SOLNI), Stellaria media (STEME) and Digitaria sanguinalis (DIGSA). After cultivation for one day (pre-emergence) or after 8 days cultivation (post-emergence) under controlled conditions in a glasshouse (at 24/16° C., day/night; 14 hours light; 65% humidity), the plants are sprayed with an aqueous spray solution derived from the formulation of the technical active ingredient in acetone/water (50:50) solution containing 0.5% Tween 20 (polyoxyethelyene sorbitan monolaurate, CAS RN 9005-64-5). Compounds are applied at 1000 g/h. The test plants are then grown in a glasshouse under controlled conditions in a glasshouse (at 24/16° C., day/night; 14 hours light; 65% humidity) and watered twice daily. After 13 days for pre and post-emergence, the test is evaluated for the percentage damage caused to the plant. The biological activities are shown in the following table on a five point scale (5=80-100%; 4=60-79%; 3=40-59%; 2=20-39%; 1=0-19%).
# [2] = test system: Amaranthus retoflexus (AMARE); assay: Glasshouse herbicide test, post-emergence
# Method: as §1
# [3] = test system: Stellaria media (STEME); assay: Glasshouse herbicide test, post-emergence
# Method: as §1
# [4] = test system: Digitaria sanguinalis (DIGSA); assay: Glasshouse herbicide test, post-emergence
# Method: as §1
# [5] = test system: Lolium perenne (LOLPE); assay: Glasshouse herbicide test, pre-emergence
# Method: as §1
# [6] = test system: Amaranthus retoflexus (AMARE); assay: Glasshouse herbicide test, pre-emergence
# Method: as §1
# [7] = test system: Stellaria media (STEME); assay: Glasshouse herbicide test, pre-emergence
# Method: as §1
# [8] = test system: Digitaria sanguinalis (DIGSA); assay: Glasshouse herbicide test, pre-emergence
# Method: as §1
# [9] = test system: Echinochloa crus-galli (ECHCG); assay: Glasshouse herbicide test, post-emergence
# Method: as §1
# [10] = test system: Alopecurus myosuroides (ALOMY); assay: Glasshouse herbicide test, post-emergence
# Method: as §1
# [11] = test system: IPOHE; assay: Glasshouse herbicide test, post-emergence
# Method: [The procedure below names another species; the source lists this species under the same test.] as §1
# [12] = test system: Setaria faberi (SETFA); assay: Glasshouse herbicide test, post-emergence
# Method: as §1
# [13] = test system: Solanum nigrum (SOLNI); assay: Glasshouse herbicide test, post-emergence
# Method: as §1
# [14] = test system: Echinochloa crus-galli (ECHCG); assay: Glasshouse herbicide test, pre-emergence
# Method: as §1
# [15] = test system: Alopecurus myosuroides (ALOMY); assay: Glasshouse herbicide test, pre-emergence
# Method: as §1
# [16] = test system: IPOHE; assay: Glasshouse herbicide test, pre-emergence
# Method: [The procedure below names another species; the source lists this species under the same test.] as §1
# [17] = test system: Setaria faberi (SETFA); assay: Glasshouse herbicide test, pre-emergence
# Method: as §1
# [18] = test system: Solanum nigrum (SOLNI); assay: Glasshouse herbicide test, pre-emergence
# Method: as §1
SMILES,"percentage damage caused to the plant, LOLPE, POST Application [1]","percentage damage caused to the plant, AMARE, POST Application [2]","percentage damage caused to the plant, STEME, POST Application [3]","percentage damage caused to the plant, DIGSA, POST Application [4]","percentage damage caused to the plant, LOLPE, PRE Application [5]","percentage damage caused to the plant, AMARE, PRE Application [6]","percentage damage caused to the plant, STEME, PRE Application [7]","percentage damage caused to the plant, DIGSA, PRE Application [8]","percentage damage caused to the plant, ECHCG, POST Application [9]","percentage damage caused to the plant, AMARE, POST Application ([2]; second table)","percentage damage caused to the plant, ALOMY, POST Application [10]","percentage damage caused to the plant, IPOHE, POST Application [11]","percentage damage caused to the plant, SETFA, POST Application [12]","percentage damage caused to the plant, SOLNI, POST Application [13]","percentage damage caused to the plant, ECHCG, PRE Application [14]","percentage damage caused to the plant, AMARE, PRE Application ([6]; second table)","percentage damage caused to the plant, ALOMY, PRE Application [15]","percentage damage caused to the plant, IPOHE, PRE Application [16]","percentage damage caused to the plant, SETFA, PRE Application [17]","percentage damage caused to the plant, SOLNI, PRE Application [18]"
Cn1cnnc1NC(=O)c1ccc(S(C)(=O)=O)c(COCC(F)(F)F)c1Cl [Compound 1.001],1 (1=0-19%),5 (5=80-100%),5 (5=80-100%),5 (5=80-100%),1 (1=0-19%),3 (3=40-59%),1 (1=0-19%),1 (1=0-19%),–,–,–,–,–,–,–,–,–,–,–,–
CCn1cnnc1NC(=O)c1ccc(S(C)(=O)=O)c(COCC(F)(F)F)c1Cl [Compound 1.014],–,–,–,–,–,–,–,–,5 (5=80-100%),5 (5=80-100%),5 (5=80-100%),5 (5=80-100%),5 (5=80-100%),5 (5=80-100%),5 (5=80-100%),5 (5=80-100%),5 (5=80-100%),5 (5=80-100%),5 (5=80-100%),5 (5=80-100%)
CCn1c(C)nnc1NC(=O)c1ccc(S(C)(=O)=O)c(COCC(F)(F)F)c1Cl [Compound 1.015],–,–,–,–,–,–,–,–,2 (2=20-39%),4 (4=60-79%),2 (2=20-39%),4 (4=60-79%),1 (1=0-19%),4 (4=60-79%),1 (1=0-19%),4 (4=60-79%),1 (1=0-19%),2 (2=20-39%),1 (1=0-19%),4 (4=60-79%)
Cn1cnnc1NC(=O)c1cc(F)c(F)cc1[N+](=O)[O-] [Compound 2.003],–,–,–,–,–,–,–,–,1 (1=0-19%),1 (1=0-19%),1 (1=0-19%),1 (1=0-19%),1 (1=0-19%),1 (1=0-19%),1 (1=0-19%),1 (1=0-19%),1 (1=0-19%),1 (1=0-19%),1 (1=0-19%),1 (1=0-19%)
Cc1ccc([N+](=O)[O-])c(C(=O)Nc2nncn2C)c1 [Compound 2.005],–,–,–,–,–,–,–,–,1 (1=0-19%),4 (4=60-79%),1 (1=0-19%),4 (4=60-79%),1 (1=0-19%),4 (4=60-79%),1 (1=0-19%),2 (2=20-39%),1 (1=0-19%),3 (3=40-59%),1 (1=0-19%),2 (2=20-39%)
Cc1ccc(C(F)(F)F)c(C(=O)Nc2nncn2C)c1 [Compound 2.006],–,–,–,–,–,–,–,–,1 (1=0-19%),2 (2=20-39%),1 (1=0-19%),2 (2=20-39%),1 (1=0-19%),4 (4=60-79%),1 (1=0-19%),2 (2=20-39%),1 (1=0-19%),3 (3=40-59%),1 (1=0-19%),3 (3=40-59%)
